Strand notation (5' to 3'): a small letter for the sugar, then the base; units joined by * are phosphorothioate-linked, units joined directly phosphodiester-linked; [ ] holds rarer units or linkages, { } end groups; capitals alone tell only the bases. k = constrained ethyl (cEt); [5mC] = 5-methylcytosine; d = 2'-deoxy (DNA)
Columns and labels:
Yap1 mRNA [1] = assay: Antisense inhibition of human Yap1 in A-431 cells by cEt gapmers, single dose (Example 3, RTS36584); assay type: cell-based
Outline: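 Human epidermoid A-431 cells take up gapmer (2,000 nM, free uptake, ~48 h); Yap1 transcript is then assayed by qRT-PCR with RiboGreen normalization and reported relative to untreated cells. Gapmers carry cEt-modified wings, phosphorothioate linkages and 5-methylcytosine throughout.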

Yap1 mRNA [2] = assay: Dose-dependent inhibition of human Yap1 in A-431 cells (Example 8, 10,000 cells per well, RTS4814); assay type: cell-based; details: for Yap1 mRNA, % UTC: A-431 cells, 10,000 cells per well; for IC50 / % UTC (Yap1 mRNA): A-431 cells
Outline: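 Yap1 mRNA, normalized to RIBOGREEN total RNA and expressed as % untreated control, was read with RTS4814 about 48 h after free-uptake oligonucleotide treatment of A-431 cells at 10,000 cells/well. IC50 derived by linear regression of log/linear data.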

[3] = Table 27, Yap1 mRNA by 3-10-3 cEt gapmers targeting SEQ ID NO.: 1, and 2, percent of untreated control
[4] = 31.3 nM, free uptake, approximately 48 hours, RTS4814
[5] = 125.0 nM, free uptake, approximately 48 hours, RTS4814
[6] = 500.0 nM, free uptake, approximately 48 hours, RTS4814
[7] = 2000.00 nM, free uptake, approximately 48 hours, RTS4814
[8] = free uptake, approximately 48 hours, RTS4814, linear regression on log/linear plot
[9] = Table 34, Yap1 mRNA as percent of untreated control, 3-10-3 cEt gapmers targeting SEQ ID NO: 1 and 2, single dose
[10] = Table 28, Yap1 mRNA as percent of untreated control, 3-10-3 cEt gapmers targeting SEQ ID NO.: 1, and 2
[11] = Table 29, Yap1 mRNA as percent of untreated control, 3-10-3 cEt gapmers targeting SEQ ID NO.: 1, and 2

Substance	YAP1 (% UTC) (Yap1 mRNA [1]; [3])	Yap1 mRNA, % UTC (Yap1 mRNA [2]; [4])	Yap1 mRNA, % UTC (Yap1 mRNA [2]; [5])	Yap1 mRNA, % UTC (Yap1 mRNA [2]; [6])	Yap1 mRNA, % UTC (Yap1 mRNA [2]; [7])	IC50 (Yap1 mRNA [2]; [8])	YAP1 (% UTC) (Yap1 mRNA [1]; [9])	% UTC (Yap1 mRNA) (Yap1 mRNA [2]; 31.3 nM)	% UTC (Yap1 mRNA) (Yap1 mRNA [2]; 125.0 nM)	% UTC (Yap1 mRNA) (Yap1 mRNA [2]; 500.0 nM)	% UTC (Yap1 mRNA) (Yap1 mRNA [2]; 2000.00 nM)	IC50 (Yap1 mRNA [2]; Yap1 mRNA)	YAP1 (% UTC) (Yap1 mRNA [1]; Table 26, Yap1 mRNA by 3-10-3 cEt gapmers targeting SEQ ID NO.: 1, and 2, percent of untreated control)	YAP1 (% UTC) (Yap1 mRNA [1]; [10])	YAP1 (% UTC) (Yap1 mRNA [1]; [11])	YAP1 (% UTC) (Yap1 mRNA [1]; Table 35, Yap1 mRNA as percent of untreated control, 3-10-3 cEt gapmers targeting SEQ ID NO: 1 and 2, single dose)
1076397 (antisense kA*kA*k[5mC]*d[5mC]*dT*dA*dT*dA*dT*dT*dT*dG*dA*kG*k[5mC]*k[5mC]) [compound 1076397]	4 % UTC	43 % UTC	14 % UTC	5 % UTC	4 % UTC	< 20 nM	–	–	–	–	–	–	–	–	–	–
1076340 (antisense kT*kA*kA*dT*dA*dT*d[5mC]*d[5mC]*dT*d[5mC]*dA*dT*d[5mC]*kA*kG*k[5mC]) [compound 1076340]	–	–	–	–	–	–	8 % UTC	79 % UTC	42 % UTC	17 % UTC	11 % UTC	100 nM	–	–	–	–
1074221 (antisense kG*kA*kA*dT*dG*dA*dG*d[5mC]*dT*d[5mC]*dG*dA*dA*k[5mC]*kA*kT) [compound 1074221]	6 % UTC	75 % UTC	38 % UTC	14 % UTC	7 % UTC	100 nM	–	–	–	–	–	–	–	–	–	–
1075052 (antisense kA*kT*kA*dT*dA*dT*dA*d[5mC]*dT*dT*dG*dA*dT*k[5mC]*k[5mC]*kA) [compound 1075052]	–	40 % UTC	10 % UTC	4 % UTC	4 % UTC	< 20 nM	–	–	–	–	–	–	3 % UTC	–	–	–
1074484 (kT*k[5mC]*kA*d[5mC]*dT*dA*dA*dT*dA*dT*dG*dG*dT*k[5mC]*kA*kT; antisense) [compound 1074484]	–	43 % UTC	12 % UTC	5 % UTC	3 % UTC	< 20 nM	3 % UTC	–	–	–	–	–	–	–	–	–
1074638 (antisense kA*kG*kA*dT*dT*dT*dT*dG*dT*dA*dA*dT*dT*kG*kG*kG) [compound 1074638]	–	14 % UTC	4 % UTC	3 % UTC	3 % UTC	< 20 nM	–	–	–	–	–	–	–	2 % UTC	–	–
1074446 (kA*kT*kG*dA*dT*dA*dG*d[5mC]*dA*d[5mC]*dT*dA*dG*kG*kA*kG; antisense) [compound 1074446]	–	39 % UTC	11 % UTC	5 % UTC	3 % UTC	< 20 nM	–	–	–	–	–	–	–	3 % UTC	–	–
1076174 (kG*kA*kT*dA*dT*dA*dT*dG*dG*dT*dA*dG*d[5mC]*kA*kT*kA; antisense) [compound 1076174]	–	58 % UTC	21 % UTC	7 % UTC	4 % UTC	< 20 nM	–	–	–	–	–	–	–	3 % UTC	–	–
1075983 (kA*kT*k[5mC]*dG*dA*dA*dA*dA*dG*d[5mC]*dA*dA*dA*k[5mC]*kT*k[5mC]; antisense) [compound 1075983]	–	81 % UTC	46 % UTC	17 % UTC	6 % UTC	100 nM	–	–	–	–	–	–	–	–	5 % UTC	–
1075093 (k[5mC]*kA*kA*dA*dG*dT*dA*dA*dG*dG*dT*dA*dT*kG*kA*kG; antisense) [compound 1075093]	–	–	–	–	–	–	–	74 % UTC	26 % UTC	7 % UTC	4 % UTC	100 nM	–	–	–	3 % UTC
1074447 (kA*kA*kT*dG*dA*dT*dA*dG*d[5mC]*dA*d[5mC]*dT*dA*kG*kG*kA; antisense) [compound 1074447]	–	47 % UTC	20 % UTC	8 % UTC	5 % UTC	< 20 nM	–	–	–	–	–	–	–	–	4 % UTC	–

Source: patent publication US11214803B2, “Modulators of YAP1 expression” (Ionis Pharmaceuticals, Inc., priority 2019, dated 2022)
